Reference: the METLIN SMRT retention time set (Domingo-Almenara et al. 2019)

Assay: gradient 5% acetonitrile 3 min, to 50% in 2 min, to 85% in 15 min, held 3 min, 100 µL/min
Details: column: Zorbax Extend-C18 2.1 x 50 mm; eluents: water / acetonitrile, 0.1% formic acid
In short: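 Retention time was recorded from adduct peaks, which were picked computationally and each inspected manually. Pure standards ran in mixtures of ~100 molecules on HPLC coupled to a quadrupole time-of-flight mass spectrometer, in positive and negative ionization mode, through a Zorbax Extend-C18 column (2.1 × 50 mm, 1.8 μm) at 100 μL/min. Eluents were water and acetonitrile, each with 0.1% formic acid.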

RP-LC retention time [s] | Structure (SMILES)
910 | CCC(c1cccs1)N1C(=O)[C@H]2CN(S(=O)(=O)c3ccc(OC)cc3)C[C@H]2C1=O (some centres undefined)
880 | CN1C(=O)C(C)(C)COc2cc(NS(=O)(=O)Cc3cccc(Cl)c3)ccc21
976 | CCc1ccccc1NC(=O)N1CCCC1c1nc(-c2ccc(OC)cc2)no1 (centres undefined)
1120 | CCc1ccc(-n2nc(CO)c(C(=O)NC3CCCC3)n2)cc1
834 | CN1C(=O)c2cccnc2Sc2cc(NC(=O)Cc3ccc(F)cc3)ccc21
736 | COc1ccc(CC(=O)N2CCCC2c2cc(C)on2)cc1 (centres undefined)
970 | CCN1C(=O)c2cc(S(=O)(=O)Nc3ccc(C)cc3)ccc2Oc2cccnc21
1050 | Cc1ccccc1-c1noc(Cn2c(=O)n(-c3ccccc3C)c(=O)c3sccc32)n1
739 | Cc1nc(-c2cccc(NC(=O)CCn3nnc4ccccc4c3=O)c2)cs1
918 | COc1ccc(NS(=O)(=O)c2ccc3c(c2)C(=O)N(C)c2ncccc2O3)cc1Cl
618 | CCCN1CCN(C(=O)C(CC)n2c3ccccc3c3cnn(C)c(=O)c32)CC1 (centres undefined)
840 | Cn1c(=O)c(=O)n(C)c2cc(N3CCCCC3)c(NC(=O)c3ccco3)cc21
831 | Cc1ccc(NC(=O)N2CCC(N3CCN(Cc4ccc(F)cc4)C(=O)C3=O)CC2)cc1Cl
960 | Cc1ccc2c(c1)N(S(C)(=O)=O)CCC(C(=O)Nc1ccc(F)c(F)c1)O2 (centres undefined)
1040 | CC1Oc2ccc(-c3csc(NC(=O)c4ccc(Cl)cc4)n3)cc2N(C)C1=O (centres undefined)
866 | CCNC(=O)N1CCCC(c2cccc(C(=O)NCc3ccc(C)c(C)c3)c2)C1 (centres undefined)
912 | COc1ccc(S(=O)(=O)NCc2c(-c3ccccc3)nc3sc(C)nn23)cc1Cl
704 | CC(C)(CO)NC(=O)Cc1ccc(NC(=O)c2ccc(Cl)s2)cc1
822 | CCC(C)NC(=O)NC1CCN(C2=NS(=O)(=O)C(c3ccc(C)cc3)=C2C)CC1 (centres undefined)

RP-LC retention time [s] | Structure (SMILES)
836 | COc1cccc(CNC(=O)N2CCCC2c2cc(C(C)C)no2)c1 (centres undefined)
813 | CCOc1ccc(-c2ccc(=O)n(Cc3nc(-c4ccccn4)no3)n2)cc1
552 | Cc1[nH]c(=O)[nH]c(=O)c1CC(=O)NCCn1nc(-c2ccco2)ccc1=O
1030 | COc1ccc(-c2nnc(-c3ccc(C)c(S(=O)(=O)N4CCCC4)c3)o2)cc1
898 | Cc1noc(-c2cccc(OC3CN(C(=O)c4cccn4C)C3)c2)n1
776 | CC(C)(C)OC(=O)CN(c1ccc(F)cc1)S(=O)(=O)c1cccn2cnnc12
909 | CCc1cc(=O)n(Cc2cccc(F)c2)c(N2CCOCC2)n1
1050 | C=CCN1C(=O)COc2ccc(-c3nc(NC(=O)CCc4ccccc4)sc3C)cc21
824 | CCOC(=O)c1ccccc1NC(=O)NCC(c1cccnc1)c1cn(C)c2ccccc12 (centres undefined)
830 | Cc1ccc(NC(=O)Cn2ccc3sccc3c2=O)cc1Cl
703 | CCC(C)C(NC(=O)c1cccc(N(C)C)c1)C(=O)Nc1nc2ccccc2[nH]1 (centres undefined)
663 | CCc1ccccc1NC(=O)N1CCC(c2cc(=O)n3nccc3n2C)CC1
1030 | COc1ccc2c(c1)C1CC(C)(O2)N(C)C(=O)C1S(=O)(=O)c1ccc(C)c(C)c1 (centres undefined)
784 | O=C(CN1C(=O)C2CCCCN2c2ccc(C(=O)N3CCCCC3)cc21)NCc1ccco1 (centres undefined)
651 | CCOC(=O)Nc1ccc2nc(-c3cscn3)[nH]c2c1
645 | Cc1ccc2nc(C(=O)NCc3ccc(F)cc3)cn2c1
752 | CCCCNC(=O)C1CCN(c2cnn(Cc3ccccc3)c(=O)c2)CC1
880 | O=C(NCc1ccccc1)c1nc(Cn2c(=O)oc3ccccc32)no1

The next lines start with the molecule.

Structure (SMILES) | RP-LC retention time [s]
Cn1cnc(S(=O)(=O)N2CCC(C(=O)N3CCN(c4cccc(Cl)c4)CC3)CC2)c1 | 780
Cc1cccc(S(=O)(=O)N2CCCC(Cn3c(C4CC4)nc4cccnc43)C2)c1 (centres undefined) | 791
CC(C)Oc1ccc(-c2noc(Cn3c(=O)n(Cc4ccccc4)c(=O)c4sccc43)n2)cc1 | 1170
Cc1[nH]c2ccccc2c1C(=O)C(=O)NC1CCCCC1 | 798
O=C(NC1CC1)c1ccc(OCC2CCN(C(=O)c3ccc(F)cc3Cl)CC2)cc1 | 837
N#CCCc1ccc2c(c1)-c1[nH]c3ccc([N+](=O)[O-])cc3c1CC(=O)N2 | 778
Cc1cc(C)cc(N2CCC(NC(=O)NC(C)C)C2=O)c1 (centres undefined) | 736
COc1cccc(-c2csc(-c3nnn(-c4ccc(C)cc4)c3N)n2)c1 | 1140
O=C(NCCNC(=O)Nc1cccc(Cl)c1)Nc1cccc(Cl)c1 | 782
CCN1CCN(c2ncc3c(n2)CCN(Cc2ccc(Br)s2)C3)CC1 | 568
CCOc1ccc(NC(=O)Nc2nccn(-c3ccc(Br)cc3)c2=O)cc1 | 1040
O=C(c1ccc(Br)o1)N1CCN(c2nc3ccccc3nc2C(F)(F)F)CC1 | 1140
Cc1nc(-c2csc(S(=O)(=O)N3CCCC(C(=O)NC4CCCCCCC4)C3)c2)no1 (centres undefined) | 1060
CCOC(=O)C1CCN(C(=O)CN2C(=O)COc3ccc(C(=O)N(CC)CC)cc32)CC1 | 700
COc1ccc(-c2nnc(-c3cccnc3NCc3ccc(OC)c(OC)c3)o2)cc1 | 1060
COc1ccc2c(c1)c(CN1CCOCCNC(=O)CC1)cn2C | 598
CN1C(=O)C(CC(=O)N2CCCCCC2)Sc2ncccc21 (centres undefined) | 705
Cn1c(=O)c2c(ncn2CC2OCCO2)n(C)c1=O | 606
COc1ccc(C2(C(=O)N3CCC(c4ncc(C)n4C(C)C)C3)CC2)cc1 (centres undefined) | 530
COc1ccc(-c2noc(Cc3nnc(-c4cccc(Cl)c4)o3)n2)cc1F | 1060
COc1ccccc1N1CCN(c2cc(SCC(=O)Nc3ccc(C(C)C)cc3)ncn2)CC1 | 1140
O=C1CCCCC(CNC(=O)c2ccsc2)N1 (centres undefined) | 619
CCN1c2ccc(F)cc2C(=O)NC12CCN(C(=O)c1ccc(OC)cc1C)CC2 | 802
Cn1nc(-c2nnc(-c3ccc(F)cc3)o2)c2c1CCN(S(=O)(=O)c1cccc(Cl)c1)C2 | 987
Cc1cc(C2CCCN2C(=O)Nc2ccccc2C(F)(F)F)no1 (centres undefined) | 895
O=C(c1nnn2c1COC(c1ccccc1)C2)N1CCN(C(=O)c2cccc3[nH]ccc23)CC1 (centres undefined) | 792

Structure (SMILES) | RP-LC retention time [s]
CCN(Cc1nc2ccccc2n1C)c1ccccc1 | 593
CCC1(C(=O)Nc2ccc(C(C)C)cc2)CCCCC(=O)N1 (centres undefined) | 872
Cc1ccccc1-c1noc(C2CC(=O)N(c3ccc4c(c3)OCO4)C2)n1 (centres undefined) | 718
CC(=O)c1ccc(NC(=O)Cn2c(=O)nc(NC3CCCC3)c3ccccc32)cc1 | 635
Cc1cccc(NC(=O)C2CCCCN2S(=O)(=O)c2cccs2)n1 (centres undefined) | 807
Nc1ccc(S(=O)(=O)Nc2cnc3c(Cl)cccc3n2)cc1 | 719
COc1ccc(C2CC(=O)c3cnc(Nc4nc(C)c5ccc(C)cc5n4)nc3C2)cc1 (centres undefined) | 593
Cc1ccc(S(=O)(=O)c2cnc(N3CCN(c4ccccc4F)CC3)nc2N)cc1C | 1200
O=C(Cn1nc2n(c1=O)CCCC2)N1CCN(c2ccc(F)cc2)CC1 | 651
CN(CC1CCOCC1)C(=O)Cc1ccccc1 | 695
Clc1ccc(C2Cn3nnc(-c4nc(-c5ccncc5)no4)c3CO2)cc1 (centres undefined) | 1000
CC(C)NC(=O)c1ccc2c(c1)nc(CN1CCN(C(=O)NC(C)C)CC1)n2C | 576
Nc1nc(N2CCN(c3ccccn3)CC2)ncc1C(=O)NCc1ccccc1 | 592
COc1ccc(CN(C(=O)COc2ccc(Cl)cc2C)C2CCS(=O)(=O)C2)cc1OC (centres undefined) | 938
CC1=C(c2ccc(F)cc2)S(=O)(=O)N=C1N1CCCN(C(=O)NC(C)(C)C)CC1 | 602
CC(C)n1cnc2ccc(-c3noc(CSc4ccncc4)n3)cc21 | 565
CCOc1ccc(NC(=O)N2CCCC(Cn3cnc4cccnc43)C2)cc1 (centres undefined) | 640
Cc1ccc(NC(=O)NC2CCN(c3ccccc3)C2=O)c(C)c1 (centres undefined) | 823
O=C1CC(C(=O)N(Cc2cccnc2)c2nc3ccccc3s2)CN1c1ccccc1 (centres undefined) | 695
O=C(Cc1cccc(C(F)(F)F)c1)N1CCc2nc[nH]c2C1 | 612
O=C(NCc1ccc(C(F)(F)F)cc1)C1CCN(c2nnc(-c3ccccc3)o2)CC1 | 901
O=C(CCc1nnn2c1CN(C(=O)Nc1cccc(F)c1)CC2)NC1CC1 | 664
COc1ccc(CNC(=O)C2CCN(c3cncnc3N3CCOCC3)CC2)cc1 | 651
CCNc1nc(C)cc(N2CCN(S(=O)(=O)c3ccc(OC)c(C)c3C)CC2)n1 | 764
O=C(Cc1c[nH]c2ccccc12)N1CCN2CCS(=O)(=O)N(C3CC3)C(=O)C2C1 (centres undefined) | 743
O=C(Nc1ccc(N2CCOCC2)cc1)C1CCCN(c2ccnc(-c3ccc(F)cc3)n2)C1 (centres undefined) | 649
